Source: patent publication US11419335B2, “N-arylated analogues and uses thereof” (University of Florida Research Foundation, Incorporated, priority 2016, dated 2022)
Like-named read-outs stand apart in the source and are kept apart here. Marks after values point to notes of the source that are not given here.

How the values were obtained:
[1] = tested on: methicillin-resistant Staphylococcus epidermidis (MRSE strain ATCC 35984); experiment: MIC broth microdilution, MRSE 35984; assay type: cell-based; conditions: for MIC MRSE 35984: Table 4
Experimental: (§1) The minimum inhibitory concentration (MIC) for each tested compound was determined by the broth microdilution method as recommended by the Clinical and Laboratory Standards Institute (CLSI). In a 96-well plate, eleven two-fold serial dilutions of each compound were made in a final volume of 100 μL Luria Broth. Each well was inoculated with ˜10^5 bacterial cells at the initial time of incubation, prepared from a fresh log phase culture (OD600 of 0.5 to 1.0 depending on bacterial strain). The MIC was defined as the lowest concentration of compound that prevented bacterial growth after incubating 16 to 18 hours at 37° C. (MIC values were supported by spectrophotometric readings at OD600). DMSO served as our vehicle and negative control in each microdilution MIC assay. DMSO was serially diluted with a top concentration of 1% v/v.
as §1, with “for each compound was” for “for each tested compound was”, “Standards Institute (CLSI).^6 In a” for “Standards Institute (CLSI). In a”, “concentration of test compound that” for “concentration of compound that”, “37° C. The concentration range tested for each compound during this study was 0.10 to 100 μM. DMSO served” for “37° C. (MIC values were supported by spectrophotometric readings at OD600). DMSO served”, “1% v/v. All MIC values were obtained from a minimum of three independent experiments.” for “1% v/v.”

[2] = tested on: Pseudomonas aeruginosa (PAO1); experiment: MIC broth microdilution, PAO1; assay type: cell-based; conditions: for MIC PAO1: Table 4
Experimental: as §1
as §1, with “for each compound was” for “for each tested compound was”, “Standards Institute (CLSI).^6 In a” for “Standards Institute (CLSI). In a”, “concentration of test compound that” for “concentration of compound that”, “37° C. The concentration range tested for each compound during this study was 0.10 to 100 μM. DMSO served” for “37° C. (MIC values were supported by spectrophotometric readings at OD600). DMSO served”, “1% v/v. All MIC values were obtained from a minimum of three independent experiments.” for “1% v/v.”

[3] = tested on: Klebsiella pneumoniae (ATCC 13883); experiment: MIC broth microdilution, K. pneumoniae 13883; assay type: cell-based; conditions: for MIC K. pneu. 13883: Table 4
Experimental: as §1
as §1, with “for each compound was” for “for each tested compound was”, “Standards Institute (CLSI).^6 In a” for “Standards Institute (CLSI). In a”, “concentration of test compound that” for “concentration of compound that”, “37° C. The concentration range tested for each compound during this study was 0.10 to 100 μM. DMSO served” for “37° C. (MIC values were supported by spectrophotometric readings at OD600). DMSO served”, “1% v/v. All MIC values were obtained from a minimum of three independent experiments.” for “1% v/v.”

[4] = tested on: methicillin-resistant Staphylococcus aureus MRSA-2 (clinical isolate); experiment: MIC broth microdilution, MRSA-2; assay type: cell-based; conditions: for MIC MRSA-2: Table 4
Experimental: as §1
as §1, with “for each compound was” for “for each tested compound was”, “Standards Institute (CLSI).^6 In a” for “Standards Institute (CLSI). In a”, “concentration of test compound that” for “concentration of compound that”, “37° C. The concentration range tested for each compound during this study was 0.10 to 100 μM. DMSO served” for “37° C. (MIC values were supported by spectrophotometric readings at OD600). DMSO served”, “1% v/v. All MIC values were obtained from a minimum of three independent experiments.” for “1% v/v.”

[5] = tested on: methicillin-sensitive Staphylococcus aureus ATCC 29213; experiment: MIC broth microdilution, S. aureus 29213; assay type: cell-based
Experimental: as §1, with “The MIC was defined as the lowest concentration of compound that prevented bacterial growth after incubating 16 to 18 hours at 37° C.” left out
(§2) Each well was inoculated with ˜10^5 bacterial cells at the initial time of incubation, prepared from a fresh log phase culture (OD600 of 0.5 to 1.0 depending on bacterial strain). […] The concentration range tested for each compound during this study was 0.10 to 100 μM. DMSO served as our vehicle and negative control in each microdilution MIC assay. DMSO was serially diluted with a top concentration of 1% v/v. All MIC values were obtained from a minimum of three independent experiments.

MRSA BAA-1707 = experiment: MIC broth microdilution, MRSA BAA-1707; assay type: cell-based, Staphylococcus aureus; conditions: for MIC MRSA 1707: Table 4
Experimental: as §1, with “The MIC was defined as the lowest concentration of compound that prevented bacterial growth after incubating 16 to 18 hours at 37° C.” left out
as §2

[6] = tested on: Acinetobacter baumannii (ATCC 1794); experiment: MIC broth microdilution, A. baumannii 1794; assay type: cell-based; conditions: for MIC A. bau. 1794: Table 4
Experimental: as §1
as §1, with “for each compound was” for “for each tested compound was”, “Standards Institute (CLSI).^6 In a” for “Standards Institute (CLSI). In a”, “concentration of test compound that” for “concentration of compound that”, “37° C. The concentration range tested for each compound during this study was 0.10 to 100 μM. DMSO served” for “37° C. (MIC values were supported by spectrophotometric readings at OD600). DMSO served”, “1% v/v. All MIC values were obtained from a minimum of three independent experiments.” for “1% v/v.”

[7] = tested on: Escherichia coli clinical isolate (UAEC-1); experiment: MIC broth microdilution, UAEC-1; assay type: cell-based; conditions: for MIC UAEC-1: Table 4
Experimental: as §1
as §1, with “for each compound was” for “for each tested compound was”, “Standards Institute (CLSI).^6 In a” for “Standards Institute (CLSI). In a”, “concentration of test compound that” for “concentration of compound that”, “37° C. The concentration range tested for each compound during this study was 0.10 to 100 μM. DMSO served” for “37° C. (MIC values were supported by spectrophotometric readings at OD600). DMSO served”, “1% v/v. All MIC values were obtained from a minimum of three independent experiments.” for “1% v/v.”

[8] = tested on: vancomycin-resistant Enterococcus faecium (VRE strain ATCC 700221); experiment: MIC broth microdilution, VRE 700221; assay type: cell-based; conditions: for MIC VRE 700221: Table 4
Experimental: as §1
as §1, with “for each compound was” for “for each tested compound was”, “Standards Institute (CLSI).^6 In a” for “Standards Institute (CLSI). In a”, “concentration of test compound that” for “concentration of compound that”, “37° C. The concentration range tested for each compound during this study was 0.10 to 100 μM. DMSO served” for “37° C. (MIC values were supported by spectrophotometric readings at OD600). DMSO served”, “1% v/v. All MIC values were obtained from a minimum of three independent experiments.” for “1% v/v.”

MRSE ATCC 35984 biofilms = experiment: Calgary Biofilm Device assay (MBC/MBEC), MRSE 35984; assay type: cell-based, Staphylococcus epidermidis; conditions: Table 2, CBD assay
Experimental: (§3) The lid of the Calgary device was then removed, washed and transferred to another 96-well plate containing 2-fold serial dilutions of the test compounds (the “challenge plate”). The total volume of media with compound in each well in the challenge plate is 150 μL. […] The lid was then removed from the challenge plate and MBC/MBEC values were determined using different final assays. […] The MBC values were determined as the concentration giving a lack of visible bacterial growth (i.e., turbidity). […] In select experiments, pegs from the Calgary device were removed from lead biofilm eradicators after final incubation, sonicated for 30 minutes in PBS and plated out to determine biofilm cell killing of lead biofilm-eradicating agents (i.e., colony forming unit per milliliter, CFU/mL).
(§4) Using a Calgary Biofilm Device, bacterial biofilms are established on pegs suspended to the bottom of a 96-well plate lid. Following biofilm establishment on lid pegs, lids are then transferred to new 96-well plates containing serial dilutions of test compound and allowed to incubate. After compound treatment, 96-well plate lids with pegs are once again transferred to 96-well plates containing fresh media. During this final phase of the assay, viable biofilms will grow and disperse planktonic cells into the media where they will grow and give a turbid well result. Conversely, wells that have no growth are a result of pegs that had eradicated bacterial biofilms. The lowest concentration at which no turbidity is observed is the minimum biofilm eradication concentration (MBEC). Using the Calgary Biofilm Device, both minimum biofilm eradication concentrations and minimum bactericidal concentrations (MBC) for planktonic bacterial can be determined using one assay from a single bacterial culture (FIG. 3A).

[9] = tested on: human red blood cells (hRBC); experiment: Hemolysis of red blood cells; assay type: cell-based
Experimental: The washing was repeated three times with the buffer. In a 96-well plate, test compounds were added to the buffer from DMSO stocks. […] The plate was then incubated for 1 hour at 37° C. After incubation, the plate was centrifuged for 5 minutes at 3,500 rpm. Then 80 μL of the supernatant was transferred to another 96-well plate and the optical density (OD) was read at 405 nm. DMSO served as our negative control (0% hemolysis) while Triton X served as our positive control (100% hemolysis). […] All reported data correspond to three independent experiments. Ten-point dose-response curves were generated in 96-well plates to determine 50% hemolysis (HC50 values) of red blood cells.
The washing was repeated three times with the buffer. In 96-well plate, the test compounds were added to the buffer. Then 50 μL of 2% of hRBCs in the buffer were added to the test plate to make the final concentrations ranging from 0.2 to 200 μM of each test compound. The plate was then incubated for 1 hour at 37° C. After incubation, the plate was centrifuged for 5 minutes at 3500 rpm and then 80 μL of the supernatant was transferred to another 96-well plate and the Optical Density (OD) was read at 405 nm. DMSO served as our negative control (0% haemolysis) and Triton X served as our positive control (100% haemolysis). The HC50 (concentration of test compound required to lyse red blood cells by 50%) was calculated by plotting the dose-response curve (not shown) with Graphpad Prism 6.0. All data were obtained from three independent haemolysis experiments.

MRSA BAA-1707 biofilms = experiment: Calgary Biofilm Device assay (MBC/MBEC), MRSA BAA-1707; assay type: cell-based, Staphylococcus aureus; conditions: Table 2, CBD assay
Experimental: as §3, §4

VRE ATCC 700221 biofilms = experiment: Calgary Biofilm Device assay (MBC/MBEC), VRE 700221; assay type: cell-based, Enterococcus faecium; conditions: Table 2, CBD assay
Experimental: as §3, §4

CCCCCCCCCCCCCCCCn1cc[n+](-c2ccc(Cl)cc2)c1C.[Br-] [Compound 6]
MIC MRSE 35984 [1]: 1.17a micromolar | MIC PAO1 [2]: >100 µM | MIC K. pneu. 13883 [3]: 6.25 µM | MIC ([4]; Table 1B, read-out: MIC MRSA-2): 3.13 µM | MIC ([4]; Table 3, read-out: MIC MRSA-2): 3.13 µM | MIC MRSA-2 [4]: 3.13 µM | MIC ([5]; Table 1B): 3.13 µM | MIC ([5]; Table 3): 3.13 µM | MIC (MRSA BAA-1707; Table 1B, read-out: MIC MRSA BAA-1707): 3.13 µM | MIC (MRSA BAA-1707; Table 3, read-out: MIC MRSA BAA-1707): 3.13 µM | MIC MRSA 1707 (MRSA BAA-1707): 3.13 µM | MIC A. bau. 1794 [6]: 12.5 µM | MIC UAEC-1 [7]: 6.25 µM | MIC VRE 700221 [8]: 1.56 µM

CCCCCCCCCCCC[N+](C)(C)Cc1ccccc1.[Cl-] [BAC-12, reference compound]
MIC ([1]; Table 1, read-out: MIC MRSE 35984): 3.13 µM | MIC ([1]; Table 2, read-out: MRSE 35984 MIC): 3.13 µM | MIC MRSE 35984 [1]: 3.13 µM | MIC ([2]; Table 1): >100 µM | MIC PAO1 [2]: >100 µM | MIC K. pneumoniae 13883 ([3]; Table 1): 75^a μM | MIC K. pneu. 13883 [3]: 75a micromolar | MIC ([4]; MRSA-2 and MRSA BAA-1707, read-out: MIC against two MRSA strains): 6.25 µM | MIC ([4]; Table 1, read-out: MIC MRSA-2): 6.25 µM | MIC MRSA-2 [4]: 6.25 µM | MIC (MRSA BAA-1707; Table 1, read-out: MIC MRSA BAA-1707): 6.25 µM | MIC (MRSA BAA-1707; Table 2, read-out: MRSA BAA-1707 MIC): 6.25 µM | MIC MRSA 1707 (MRSA BAA-1707): 6.25 µM | MRSE 35984 MBEC (MRSE ATCC 35984 biofilms; biofilm): > 2000 µM | MBC (MRSE ATCC 35984 biofilms; planktonic cells): 11.7 µM | HC50 [9]: > 100 µM | MIC A. baumannii 1794 ([6]; Table 1): 75^a μM | MIC A. bau. 1794 [6]: 75a micromolar | MRSA BAA-1707 MBEC (MRSA BAA-1707 biofilms; biofilm): > 1000 µM | MBC (MRSA BAA-1707 biofilms; planktonic cells): 15.6 µM | MIC ([7]; Table 1): 50 µM | MIC UAEC-1 [7]: 50 µM | VRE 700221 MBEC (VRE ATCC 700221 biofilms; biofilm): 23.5 µM | MBC (VRE ATCC 700221 biofilms; planktonic cells): 31.3 µM | MIC ([8]; Table 1, read-out: MIC VRE 700221): 25 µM | MIC ([8]; Table 2, read-out: VRE 700221 MIC): 25 µM | MIC VRE 700221 [8]: 25 µM

CCCCCCCCCCCCCCCCn1cc[n+](Cc2ccccc2C[n+]2ccn(CCCCCCCCCCCCCCCC)c2C)c1C.[Br-].[Br-] [Compound 29]
MIC MRSE 35984 [1]: >100 µM | MIC PAO1 [2]: >100 µM | MIC K. pneu. 13883 [3]: >100 µM | MIC MRSA-2 [4]: >100 µM | MIC MRSA 1707 (MRSA BAA-1707): >100 µM | RBC HC50 ([9]; Table 4, concentration required to lyse 50% of red blood cells): 34.5 µM | MIC A. bau. 1794 [6]: >100 µM | MIC UAEC-1 [7]: >100 µM | MIC VRE 700221 [8]: >100 µM
